Measurements reported in ChEMBL document CHEMBL1131491, “Comparative binding energy analysis of HIV-1 protease inhibitors: incorporation of solvent effects and validation as a powerful tool in receptor-based drug design” (J Med Chem, 1998).

molecular target: Human immunodeficiency virus type 1 protease (Human immunodeficiency virus 1, UniProt Q72874); experiment: Inhibitory activity against HIV-1 protease.

Row | IC50 | SMILES
1 | 0.178 nM | CC(C)(C)OC(=O)N[C@@H](Cc1ccccc1)[C@@H](O)C[C@@H](Cc1ccccc1)C(=O)N[C@H]1c2ccccc2OC[C@H]1O
2 | 7.59 nM | CC(C)(C)NC(=O)[C@@H]1C[C@@H]2CCCC[C@@H]2CN1C[C@@H](O)C[C@@H](Cc1ccccc1)C(=O)N[C@H]1c2ccccc2CC1O (some centres not stated)
3 | 3020 nM | CC(C)(C)NC(=O)[C@@H]1C[C@@H]2CCCC[C@@H]2CN1C[C@@H](O)[C@H](Cc1ccccc1)NC(=O)OC(C)(C)C
4 | 9.55 nM | CC(C)(C)OC(=O)N[C@@H](Cc1ccccc1)[C@@H](O)C[C@@H](Cc1ccccc1)C(=O)N[C@H]1C=CC[C@H]1O
5 | 0.692 nM | CC(C)(C)OC(=O)N[C@@H](Cc1ccccc1)[C@@H](O)C[C@@H](Cc1ccccc1)C(=O)N[C@H]1c2ccccc2CC[C@H]1O
6 | 562 nM | CC(C)(C)OC(=O)N[C@@H](Cc1ccccc1)[C@@H](O)CC(=O)N[C@H]1c2ccccc2C[C@H]1O
7 | 145 nM | C[C@@H](NC(=O)[C@H](Cc1ccccc1)C[C@H](O)[C@H](Cc1ccccc1)NC(=O)OC(C)(C)C)c1ccccc1
